US20260174860A1, “HYBRID COMPOUNDS OF SCLAREOL AND DOXORUBICIN, THEIR SYNTHESIS AND APPLICATION” (INSTITUTE FOR BIOLOGICAL RESEARCH "SINISA STANKOVIC" - …, priority 2023, published 2026)

Assays:
[1] = target: T1, P-glycoprotein activity in NCI-H460/R (Homo sapiens, UniProt P08183); test: DOX and rhodamine 123 accumulation test, flow cytometry; format: cell-based
T1 construct: obtained by successive exposure of NCI-H460 cells to increasing concentrations of DOX; endogenous in cells; host or cells: NCI-H460/R (doxorubicin-selected from NCI-H460)
T1 sequence (P08183 whole entry): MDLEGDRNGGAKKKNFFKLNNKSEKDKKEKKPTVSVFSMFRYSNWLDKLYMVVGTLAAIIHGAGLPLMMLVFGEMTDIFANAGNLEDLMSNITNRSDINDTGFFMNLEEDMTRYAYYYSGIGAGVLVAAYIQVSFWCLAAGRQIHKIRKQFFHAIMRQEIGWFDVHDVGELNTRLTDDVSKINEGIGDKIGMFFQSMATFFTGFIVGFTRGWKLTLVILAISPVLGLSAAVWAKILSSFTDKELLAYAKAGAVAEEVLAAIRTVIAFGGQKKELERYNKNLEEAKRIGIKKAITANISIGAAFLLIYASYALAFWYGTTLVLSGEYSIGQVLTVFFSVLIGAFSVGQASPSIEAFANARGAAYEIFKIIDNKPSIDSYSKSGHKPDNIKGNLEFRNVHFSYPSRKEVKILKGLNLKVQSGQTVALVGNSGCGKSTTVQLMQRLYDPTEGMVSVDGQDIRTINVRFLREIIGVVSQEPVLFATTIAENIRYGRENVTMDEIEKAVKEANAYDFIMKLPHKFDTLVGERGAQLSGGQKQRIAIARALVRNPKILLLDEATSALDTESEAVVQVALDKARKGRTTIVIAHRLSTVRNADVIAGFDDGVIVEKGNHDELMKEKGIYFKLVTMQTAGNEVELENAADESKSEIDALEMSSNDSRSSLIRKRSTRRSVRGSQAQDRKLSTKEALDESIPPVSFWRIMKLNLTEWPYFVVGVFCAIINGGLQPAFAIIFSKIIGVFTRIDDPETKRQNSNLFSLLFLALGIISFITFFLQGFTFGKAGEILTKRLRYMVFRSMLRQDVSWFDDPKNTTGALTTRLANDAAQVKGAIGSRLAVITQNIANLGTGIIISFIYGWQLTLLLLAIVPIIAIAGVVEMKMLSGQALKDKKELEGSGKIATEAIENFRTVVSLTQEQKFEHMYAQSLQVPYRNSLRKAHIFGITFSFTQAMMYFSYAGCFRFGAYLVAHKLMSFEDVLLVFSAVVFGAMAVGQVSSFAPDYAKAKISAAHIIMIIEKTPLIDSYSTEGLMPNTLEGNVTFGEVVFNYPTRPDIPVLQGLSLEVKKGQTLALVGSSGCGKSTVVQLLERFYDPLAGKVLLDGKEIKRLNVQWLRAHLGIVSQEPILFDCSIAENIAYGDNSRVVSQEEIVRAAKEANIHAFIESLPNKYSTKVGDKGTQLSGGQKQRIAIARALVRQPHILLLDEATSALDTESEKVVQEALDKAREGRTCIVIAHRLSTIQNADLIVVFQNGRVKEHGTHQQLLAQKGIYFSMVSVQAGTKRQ
Method: • a) First, DOX accumulation test was performed on three glioblastoma cell lines, U87, U87-TxR, and U251. Cells were trypsinized and counted, and then 100,000 cells per sample were collected in a tube for flow cytometry and resuspended in 500 μL of culture medium. Cells were treated with 20 μM and 50 µM SC. Immediately after SC treatment, cells were treated with 20 μM DOX, and samples were incubated at 37° C. in a humid atmosphere with 5% CO2 for 60 min. After the accumulation period, the samples were centrifuged, washed twice with cold Phosphate Buffered Saline (PBS), and finally resuspended in 1 mL of PBS. The fluorescence of the samples was read on the FL2 (red channel) of a cytofluorimeter (Partec, Munster, Germany), and the results were analyzed with the software package Summit 4.3. • b) Secondly, DOX and rhodamine 123 accumulation test was performed on non-small cell lung carcinoma cell lines NCI-H460 and NCI-H460/R. Cells were trypsinized and counted, and then 100,000 cells per sample were collected in a tube for flow cytometry and resuspended in 500 μl of culture medium. Cells were treated with 50 μM SC. Immediately after treatment, 5 μM Rho123 was added to one group of samples and the other 20 μM DOX. […] The samples were analyzed using a flow cytometer, reading for rhodamine 123 on FL1 (green channel) and DOX on FL2 (red channel). […]

[2] = Zetasizer measurement of size, polydispersity and zeta potential; format: physicochemical; details: 25° C., diluted 100 times with ultrapure water, mean of three
Method: The Malvern Zetasizer Nano ZS (Malvern Instruments, United Kingdom) was used to analyze the physico-chemical stability characteristics of conjugates. The measurement range was from 0.6 nm up to […]. The mean size of conjugates, the polydispersity index (PDI) and zeta potential were measured. All measurements were taken at a temperature of 25° C. and each sample was diluted 100 times with ultrapure water. The measurements were repeated three times, and the results were presented as the mean value. PDI is a parameter used to define the size range of particles. The term “polydispersity” (or “dispersity” as recommended by IUPAC) describes the degree of non-uniformity of a size distribution of particles. Zeta potential represents the surface charge of nanoparticles and indicates their long-term stability.

Compound | accumulation of DOX ([1]; 50 μM SC with 20 μM DOX, 60 min) | accumulation of rhodamine 123 / P-glycoprotein activity ([1]; 50 μM SC with rhodamine 123, 30 min) | Z-Average [2] [nm·days]
C=C[C@](C)(O)CC[C@@H]1[C@@]2(C)CCCC(C)(C)[C@@H]2CC[C@@]1(C)O [SC, sclareol] | increased | inhibition of P-glycoprotein activity | –
N1-((25,3S,4S,6R)-3-hydroxy-2-methyl-6-(((1S,3S)-3,5,12-trihydroxy-3-(2-hydroxyacetyl)-10-methoxy-6,11-dioxo-1,2,3,4,6,11-hexahydrotetracen-1-yl)oxy)tetrahydro-2H-pyran-4-yl)-N4-(3-((4-((R,E)-3-hydroxy-5-((1R,2R,4aS,8aS)-2-hydroxy-2,5,5,8a-tetramethyldecahydronaphthalen-1-yl)-3-methylpent-1-en-1-yl)benzyl)amino)propyl) succinamide [CON1] | – | – | 189.4 ± 9.7
